Data reported in patent US20150072416A1, “METABOLITE FOR IMPROVING PRODUCTION, MAINTENANCE AND PROLIFERATION OF PLURIPOTENT STEM CELLS, COMPOSITION COMPRISING THE SAME, AND METHOD OF CULTURING PLURIPOTENT STEM CELL USING THE SAME” (KOREA RESEARCH INSTITUTE OF BIOSCIENCE AND BIOTENOLOGY, priority 2012, published 2015).

How the values were obtained:
[1] = test system: human fibroblasts and human fibroblasts transfected with reprogramming factors; experiment: Cell growth and proliferation during reprogramming (viable cell count, BrdU, live-cell imaging); assay type: cell-based
Protocol: Human fibroblasts were seeded in a 6-well culture dish at a density of about 1×10^5 cells per well. The seeded cells were cultured for 26 days under the indicated culture conditions. To count the cell number, the cells were washed with PBS and treated with trypsin. The cell suspension was mixed with 0.4% (wt/vol) trypan blue solution, and the number of viable cells was counted on day 19 and day 26 using a hemocytometer (FIG. 10). Each experiment was performed in triplicate. Specifically, for BrdU incorporation, cells were incubated in the presence of 30 μM BrdU at 37° C. for 1 hour. After washing with PBS, the cells were fixed with 4% paraformaldehyde for 15 minutes and reacted in 1N HCl at room temperature for 15 minutes. The sample was washed and reacted with 0.1 M sodium tetraborate for 15 minutes. After washing, the cells were reacted with anti-BrdU antibody in 3% BSA-containing PBS for 1 hour, and then reacted with FITC-conjugated secondary antibody for 30 minutes. […] On day 12 of induction of reprogramming, virus expressing the cell-cycle regulators Geminin-GFP (green) and Cdt1-RFP (red) was introduced into the cells for 2 hours while slowly shaking the cells, and then an accelerator was added to the cells, followed by culture for 1 hour. The medium was replaced with fresh medium, and the cells were further cultured overnight and imaged with a fluorescence microscope. The images were obtained for at least 4 sections per sample, and the number of resting-stage cells (red) and dividing cells (green) was counted. The ratio of dividing cells was quantified by the green/red ratio.

[2] = test system: H9 human embryonic stem cells; experiment: BrdU incorporation assay in human embryonic stem cells in mTeSR1; assay type: cell-based
Protocol: For 5-bromo)-2-deoxyuridine (BrdU; BD Pharmingen, San Diego) incorporation assays, human embryonic stem cells were cultured on Matrigel-coated 4-well LabTec chamber slides for 4 days.
Specifically, for BrdU incorporation, cells were incubated in the presence of 30 μM BrdU at 37° C. for 1 hour. After washing with PBS, the cells were fixed with 4% paraformaldehyde for 15 minutes and reacted in 1N HCl at room temperature for 15 minutes. The sample was washed and reacted with 0.1 M sodium tetraborate for 15 minutes. After washing, the cells were reacted with anti-BrdU antibody in 3% BSA-containing PBS for 1 hour, and then reacted with FITC-conjugated secondary antibody for 30 minutes.
In order to verify the effect of nicotinamide on the proliferation of pluripotent stem cells, a BrdU incorporation assay was performed. Nicotinamide was added to mTeSR1 (CDM) at various concentrations, and the effects thereof were examined.

[3] = test system: human fibroblasts transfected with reprogramming factor OSKM; experiment: Measurement of reactive oxygen species during reprogramming; assay type: cell-based; conditions: 1 mM, day 19 of induction of reprogramming
Protocol: On day 19 of induction of reprogramming, the cells were dissociated into single cells by trypsin, and then stained with 5 μM of CM-H2DCFDA (2,7-dichlorodihydrofluresceindiacetat) at 37° C. for 30 minutes. Cells treated with 100 μM of hydrogen peroxide (H2O2) were used as a positive control group for the formation of reactive oxygen species, and the degree of fluorescence staining was measured by flow cytometry and quantified.

[4] = test system: embryonic stem cells; experiment: Embryonic stem cells treated with NAD+ synthesis inhibitor FK866 and NAD precursors (NAD level, AP activity, apoptosis); assay type: cell-based, human; conditions: co-treatment with FK866; also in mTeSR1-CDM
Protocol: Embryonic stem cells were treated with nicotinamide and related compounds, and after 6 days, protein was isolated from the cells. NAD cycling enzyme was added to and reacted with 20 μg of the protein per each group at room temperature for 5 minutes, and then a NADH developer was added and reacted therewith for 2-3 hours. The absorbance at 450 nm was measured using a microplate reader, and the amount of the […] was quantified.
AP staining was performed using a commercial AP kit (Sigma) according to the manufacturer's instruction. Images of AP-positive cells were recorded with HP Scanjet G4010. Also, bight field images were obtained with an Olympus microscope (IX51, Olympus, Japan).
In order to examine the effect of nicotinamide on a reduction in the apoptosis of human pluripotent stem cells, dual apoptosis assay (Biotium, Hayward, Calif.) was performed. Embryonic stem cells or cells reprogrammed were stained with NucView™488 Caspase-3 Substrate (green)/Annextin V (red) at room temperature for 30 minutes, followed by washing with PBS. At least 4 sections of each sample were imaged with an Olympus fluorescence microscope (IX51, Olympus), and the number of cells stained with green (Caspase-3) was counted to quantify the degree of apoptosis.

[5] = test system: human pluripotent stem cells; experiment: Long-term subculture in UM with nicotinamide (TRA-1-60 staining, karyotyping); assay type: cell-based
[6] = test system: human fibroblasts transfected with reprogramming factors; experiment: Reprogramming kinetics of hiPSCs (stem cell marker expression, time to colonies); assay type: cell-based
Protocol: Total RNA was isolated from produced cells using an RNeasy Mini kit (Qiagen, Valencia, Calif.) and reverse-transcribed using a SuperScript First-strand synthesis system kit (Invitrogen) according to the manufacturer's instruction. Then, semi-quantitative RT-PCR was performed using a platinum Tag SuperMix kit (Invitrogen) under the following conditions: 94° C. for 3 minutes, and then 25-30 cycles, each consisting of 94° C. for 30 sec, 60° C. for 30 sec and 72° C. for 30 sec, followed by extension at 72° C. for 10 minutes. For immunostaining, cells were seeded on Matrigel-coated 4-well Lab-Tek chamber slides (Nunc, Naperville, Ill.) and cultured for 5 days under the indicated conditions. The cells were fixed in 4% paraformaldehyde at room temperature for 15 minutes, and then washed with PBS/0.2% BSA. Next, the cells were passed through PBS/0.2% BSA/0.1% Triton X-100 for 15 minutes, and then incubated with 4% normal donkey serum (Molecular Probes, Eugene, Oreg., USA) in PBS/0.2% BSA at room temperature for 1 hour. The cells were diluted with PBS/0.2% BSA, and then reacted with primary antibody at 4° C. for 2 hours. After washing, the cells were reacted with FITC- or Alexa594-conjugated secondary antibody (Invitrogen) in PBS/0.2% BSA at room temperature for 1 hour. The cells were counter-stained with 10 μg/ml DAPI. […] From day 5 of culture (D5), the expression levels of the stem cell markers Nanog and Tra-1-60 in the cell group treated with nicotinamide increased by 3 times and 8 times, respectively, compared to those in the untreated group (FIG. 6).

[7] = test system: human fibroblasts transfected with reprogramming factor OSKM; experiment: Mitochondrial membrane potential during reprogramming (JC-1, flow cytometry); assay type: cell-based; conditions: 1 mM
Protocol: At different time points of reprogramming, the cells of a control group and a nicotinamide-treated group (Nam) were dissociated with single cells by trypsin, and then stained with JC-1 (5,5′,6,6′-tetraachloro-1,1′,3,3′-tetraethylbenzimidazolocarbocyanine iodide) solution at 37° C. for 15 minutes. After washing, the degree of fluorescence staining was measured by flow cytometry, relative mitochondrial membrane potential was quantified by the red/green ratio.

[8] = from day 5 of culture, compared to untreated group

**Q.** Which results are given for `NC(=O)c1cccnc1` [nicotinamide]?
**A.** ratio of proliferating cells (live cell imaging) ([1]; 1 mM, day 12 of induction of reprogramming): increased; number of healthy viable cells ([1]; 0.1, 1 and 10 mM, days 19 and 26, concentration-dependent): increased; number of actually dividing cells incorporated with BrdU ([1]; 0.1-1 mM, day 19 of induction of reprogramming): significantly increased; optimal nicotinamide concentration for promoting cell growth ([1]; culture process for inducing reprogramming): 1 mM; increase in BrdU incorporation ([2]; 0.1 mM in mTeSR1, compared to cells cultured in mTeSR1): 1.6 times; increase in BrdU incorporation ([2]; 1 mM in mTeSR1, compared to cells cultured in mTeSR1): 1.2 times; formation of reactive oxygen species [3]: inhibited; recovery from damage caused by FK866 [4]: recovered; passages subcultured in an undifferentiated state ([5]; UM with 0.1 mM nicotinamide, TRA-1-60 staining): ≥ 10 passages; karyotype after long-term subculture ([5]; nicotinamide-containing medium): normal karyotypes; period of time required until hiPSCs colonies ([6]; cells treated with nicotinamide, 3 weeks or more generally required): ≤ 2 weeks; increase in expression level of stem cell marker Nanog (immunostaining) [6, 8]: 3 times; increase in expression level of stem cell marker Tra-1-60 (immunostaining) [6, 8]: 8 times; mRNA expression levels of Nanog and TERT ([6]; from day 7, real-time PCR): rapidly increased; membrane potential of mitochondria in reprogramming conditions [7]: the membrane potential was maintained
